7 molecules from ChEMBL document CHEMBL1151839, “Phosphorothioate analogs of m7GTP are enzymatically stable inhibitors of cap-dependent translation” (Bioorg Med Chem Lett, 2009) can be followed below.

Data set [1] is described as follows: Stability in presence of human DcpS assessed as complete degradation at 40 uM by HPLC-based assay. It counts as ADME.
The target in data set [2] is T1, Eukaryotic translation initiation factor 4E (Oryctolagus cuniculus, UniProt P29338). The data set can be described thus: Inhibition of eukaryotic initiation factor 4E in micrococcal nuclease-pretreated rabbit reticulocyte lysate assessed as inhibition of m7,3'-O-GpppG-capped 5'UTRbetaglob-LUC mRNA translation by luciferase-based luminometry.
For data set [3], the target named is T1, Eukaryotic translation initiation factor 4E. The data set can be described thus: Inhibition of eukaryotic initiation factor 4E in micrococcal nuclease-pretreated rabbit reticulocyte lysate assessed as inhibition of m7,3'-O-GpppG-capped 5'UTRbetaglob-LUC mRNA translation treated 60 mins before mRNA addition by luciferase-based luminometry.
Data set [4] deals with Eukaryotic translation initiation factor 4E (Mus musculus) (UniProt P63073).
Description: Binding affinity to mouse eukaryotic initiation factor 4E expressed in Escherichia coli BL21(DE3) by fluorescence quenching titration method
Data set [5] addresses T1, Eukaryotic translation initiation factor 4E. The data set can be described thus: Inhibition of eukaryotic initiation factor 4E in micrococcal nuclease-pretreated rabbit reticulocyte lysate assessed as inhibition of rabbit beta-[…] mRNA translation by [3H]leucine incorporation assay.

Each structure is given as a SMILES string. pIC50: −log10 of the molar value. Where only a bound is given, the exact number is not on record here.

Chain of Eukaryotic translation initiation factor 4E (Mus musculus) (P63073 whole entry): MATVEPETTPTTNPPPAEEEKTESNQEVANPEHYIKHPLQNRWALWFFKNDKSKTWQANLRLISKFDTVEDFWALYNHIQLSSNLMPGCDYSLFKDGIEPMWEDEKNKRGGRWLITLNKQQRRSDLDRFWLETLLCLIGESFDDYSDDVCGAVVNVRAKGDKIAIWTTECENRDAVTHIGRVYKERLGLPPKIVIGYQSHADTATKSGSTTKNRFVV
T1 sequence (P29338 whole entry): as the sequence (P63073 whole entry) above, with T12P counted along it

Consider `C[n+]1cn([C@@H]2O[C@H](CO[P@](=O)(S)OP(=O)([O-])OP(=O)(O)O)[C@@H](O)[C@H]2O)c2nc(N)nc(O)c21`, for which the Stability entry in data set [1] is on record as “Stable”. Moreover, the pIC50 in data set [2] and in data set [3] was 6.25 throughout. In data set [4], the Ka was 371 µM⁻¹.
Turning to `C[n+]1cn([C@@H]2O[C@H](COP(=O)(O)OP(=O)([O-])OP(=O)(O)OC[C@H]3O[C@@H](n4cnc5c(=O)[nH]c(N)nc54)[C@H](O)[C@@H]3O)[C@@H](O)[C@H]2O)c2nc(N)[nH]c(=O)c21`, the Stability result in data set [1] is reported as “Unstable”. Besides, the pIC50 in data set [2] is 5.08; in data set [3] it was above 4.70; in data set [5], 4.77.
In turn, `C[n+]1cn([C@@H]2O[C@H](COP(=O)(O)OP(=O)([O-])OP(=O)(O)OC[C@H]3O[C@@H](n4cnc5c(=O)[nH]c(N)nc54)[C@H](O)[C@@H]3O)[C@@H](O)[C@H]2O)c2nc(N)nc(O)c21` came in with a Ka in data set [4] of 9.4 µM⁻¹.
As for `C[n+]1cn([C@@H]2O[C@H](CO[P@@](=O)(S)OP(=O)([O-])OP(=O)(O)OC[C@H]3O[C@@H](n4cnc5c(=O)[nH]c(N)nc54)[C@H](O)[C@@H]3O)[C@@H](O)[C@H]2O)c2nc(N)nc(O)c21`, in data set [1], the Stability entry was “Stable”. The results for the pIC50 in data set [2], in data set [3] and in data set [5] were 5.42, 5.68 and 4.92, respectively. The molecule further returned a Ka in data set [4] of 10 µM⁻¹.
As to `C[n+]1cn([C@@H]2O[C@H](COP(=O)([O-])OP(=O)(O)OP(=O)(O)O)[C@@H](O)[C@H]2O)c2nc(N)[nH]c(=O)c21`, the Stability result in data set [1] is reported as “Unstable”.
Turning to `C[n+]1cn([C@@H]2O[C@H](CO[P@](=O)(S)OP(=O)(O)OP(=O)(O)OC[C@H]3O[C@@H](n4cnc5c(=O)[nH]c(N)nc54)[C@H](O)[C@@H]3O)[C@@H](O)[C@H]2O)c2nc(N)[n-]c(=O)c21`, the Stability result in data set [1] is given as “Stable”. Further, the figures for the pIC50 in data set [2], in data set [3] and in data set [5] were 5.96, 5.92 and 5.39, respectively.
In the case of `C[n+]1cn([C@@H]2O[C@H](CO[P@@](=O)(S)OP(=O)(O)OP(=O)([O-])O)[C@@H](O)[C@H]2O)c2c1C(O)NC(N)=N2` (stereo not given in full), in data set [4], the Ka was 190 µM⁻¹.
